Measured values reported in US4223041A, “Urea derivatives to treat anxiety and aggressivity” (Labaz, priority 1976, dated 1980).

Experiments:
[1] = Anxiolytic and antiaggressive properties and separation from sedation (general statements); conditions: in vivo
[2] = rota rod test (neurotoxicity); format: in vivo, mouse; conditions: for % of failures in rota rod test: mice, 30 min after administration
Protocol: The test used was that known as the rota rod test described by BOISSIER (Therapie 1958 XIII pp. 1074-1118).
This test aims at determining the ability of mice to coordinate their movements by seeing to what extent they can remain on a roller turning at a rate of 4 revolutions per minute for two minutes. The trial was carried out thirty minutes after administration by oral route of the compound to be studied and the percentage of failures was noted.
The value of this test is twofold. Failure on the part of the animals gives a very early indication of the slightest damage to the meuromuscular functions which cannot be discerned by any other means. Secondly, this test serves as an element of comparison for drawing up index figures involving the results obtained with other tests.

[3] = Influence on acetylcholine-induced hypotension and bradycardia; format: in vivo; conditions: 100 mg/kg i.p., rat
Protocol: Similarly, at a dose of 100 mg/kg by intraperitoneal route, the preferred compound of the invention has no influence on acetylcholine-induced hypotension and bradycardia in the rat.

CCCC(CCC)(CCC)NC(N)=O [Compound A, 1-(1,1-Di-n-propyl-n-butyl)-urea]
anxiolytic and antiaggressive activity (in words) [1]: most outstanding anxiolytic and antiaggressive properties | % of failures in rota rod test ([2]; 175 mg/kg oral): 0% | % of failures in rota rod test ([2]; 600 mg/kg oral): 30% | sedative effect relative to reference products ([2]; at ED25 of four plates test): least sedative | failures in the rota rod test ([2]; at the dose which provokes a 60%-decrease in the number of combats): no failure | Rota rod (% of failures) ([2]; comparison at 25%-protection dose of four plates test, 175 mg/kg): 0% | influence on acetylcholine-induced bradycardia [3]: no influence | influence on acetylcholine-induced hypotension [3]: no influence
